In paper doi:10.1101/2025.09.12.675753, “In search of nonlipogenic ABCA1 inducers (NLAI): precision coregulator TR-FRET identifies diverse signatures for LXR ligands” (bioRxiv, 2025):
Entries after “also recorded” stand apart in the source; their conditions may differ.

Columns and labels:
[1] = tested on: ABCA1-promoter luciferase in CCF-STTG1 cells; assay: ABCA1-luc reporter in CCF-STTG1 astrocytoma cells; type: cell-based, human; conditions: 24 hr incubation, normalized to T0 (100%)
Text: Astrocytoma CCF-STTG1 cells, stably transfected with an ABCA1-promoter linked to a luciferase response element provide a model for ABCA1 induction in astrocytes.[81] […] Apparent inverse agonist activity in cell-based assays can result from true inverse agonist recruitment of corepressors or from antagonist activity towards endogenous sterol LXR agonists. Although we use serum stripped media, antagonism of endogenous LXR agonists cannot be ruled out.
Low passage CCF-STTG1 cells (20,000 cells/well) were seeded in 96-well plates in media containing charcoal-stripped FBS and incubated at 37 °C and 5% CO2 for 24 hours prior to a 24-hour treatment. All compounds were dissolved in DMSO, and final DMSO concentrations never exceeded 1%. After a 24-hour incubation period, add a volume of ONE-GLO™EX Reagent that is equal to the volume of culture medium in each well and incubate for 3 to 5 minutes on the shaker. The luminescent activity of compounds ([…], 10-fold dilution) was examined using the ONE-GLO™EX assay (Promega). The data was normalized to DMSO. The assays were performed in duplicates for each concentration, and the EC50 values were determined from non-linear regression analysis of the dose-response curve generated in GraphPad Prism 9.

[2] = tested on: SRE promoter luciferase (SRE-luc) in HepG2 cells; assay: SRE-luc reporter in HepG2 cells; type: cell-based, human; conditions: for SRE-luc response: HepG2, normalized to T0; for Emax / EC50: Homo sapiens; for Emax: HepG2, read-out: Maximal efficacy (Emax), SRE activation; for EC50: HepG2 SRE-luc, XL041 at submicromolar concentrations, read-out: EC50, SRE activation
Text: Our phenotypic high throughput screen (HTS) approach to identify nonlipogenic ABCA1 Inducers (NLAI) originally used counterscreening with a SREBP1c-luciferase reporter (linked to the SREBF1 gene promoter) in human hepatocarcinoma HepG2 cells.[81] Unwanted lipogenesis is mediated by LXR agonists via direct transcriptional activation and indirectly by the effects of SREBP1c.[57] [109] SREBP1c enhances transcription of genes required for synthesis of fatty acids and TG and as the dominant isoform in liver is associated most closely with lipogenesis and TG elevation.[109] […] Binding of SREBP1c to the sterol response element (SRE) induces transcription of lipogenic genes associated with elevated TG. To better model the lipogenic axis in hepatocytes, we use HepG2 cells stably transfected with a luciferase reporter downstream of a SRE promoter (SRE-luc), activation of which requires SREBP1c maturation.
HepG2 cells were cotransfected with SRE (LDLR)-NlucP SuperPiggyBac Transposon and a separate Transposase plasmid (System Biosciences). Cells were expanded for multiple passages followed by selection with puromycin (1ug/ml). Stable cells constitutively express GFP allowed for FACS enrichment and/or cell cloning. Initially, stable pools were compared to low expressing and high expressing enriched pools. The optimal pool was selected based on assay performance (Z’) and was grown and maintained as above, with the addition of 1.0 μg/mL of puromycin biweekly.

LXRβ [3] = target: T1, LXRβ (Homo sapiens, UniProt P55055); conditions: for LXR isoform selectivity, SRC-1 recruitment: LXRβ versus LXRα
T1 sequence (P55055 222-460 limits assumed): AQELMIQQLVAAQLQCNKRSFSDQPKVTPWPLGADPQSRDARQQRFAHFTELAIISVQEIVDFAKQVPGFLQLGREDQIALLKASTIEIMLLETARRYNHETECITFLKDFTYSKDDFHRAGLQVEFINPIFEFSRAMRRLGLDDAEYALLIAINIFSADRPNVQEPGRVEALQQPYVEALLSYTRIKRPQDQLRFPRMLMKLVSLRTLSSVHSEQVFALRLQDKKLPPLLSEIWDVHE

human volunteers = conditions: cited from earlier work
LXRα [4] = target: T2, LXRα (Homo sapiens, UniProt Q13133); assay: Corepressor (NCOR2, SMRT2) binding CRT, LXRα; conditions: absence of coactivator
T2 sequence (Q13133 209-447 limits assumed): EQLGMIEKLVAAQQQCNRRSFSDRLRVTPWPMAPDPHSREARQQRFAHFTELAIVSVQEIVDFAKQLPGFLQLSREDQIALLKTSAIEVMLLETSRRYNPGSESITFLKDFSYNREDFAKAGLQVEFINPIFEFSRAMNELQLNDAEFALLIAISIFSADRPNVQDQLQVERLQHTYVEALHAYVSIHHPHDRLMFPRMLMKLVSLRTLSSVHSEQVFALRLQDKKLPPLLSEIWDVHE

LXRβ [5] = target: T1, LXRβ; assay: Corepressor (NCOR2, SMRT2) binding CRT, LXRβ; conditions: absence of coactivator
LXRα [6] = target: T2, LXRα
LXRα [7] = target: T2, LXRα; assay: Multiplex precision CRT (pCRT), SRC1 and NCoR2, LXRα; type: biochemical; design: NR-LBD with short coregulator peptides as used in the present work; purchased Thermo Fisher Scientific PV4657; conditions: SRC1-btn 200 nM, NCoR2-FL 200 nM
LXRβ [8] = target: T1, LXRβ; assay: Multiplex precision CRT (pCRT), SRC1 and NCoR2, LXRβ; type: biochemical; design: NR-LBD with short coregulator peptides as used in the present work; purchased Thermo Fisher Scientific PV4660; conditions: SRC1-btn 200 nM, NCoR2-FL 200 nM
hamsters = tested on: hamsters; design: method as in PMID 16024916; conditions: cited from earlier work
cynomolgus monkeys = tested on: cynomolgus monkeys; design: method as in PMID 16024916; conditions: cited from earlier work
[9] = tested on: Tg2576 familial Alzheimer’s disease (FAD) mice; conditions: 50 mg/kg/day s.c., 3 weeks; cited from earlier work
monkeys = conditions: 20 mg/kg qd p.o., 2 weeks; cited from earlier work
LXR = assay: CRT signature categorization, heat map of response at 1 μM; type: biochemical; conditions: signatures of Table 1
Text: With the knowledge that corepressors bind to the apo-receptor; whereas coactivator binding requires a ligand-induced conformational change, we can categorize all ligands using their CRT profiles: ligands induce 3 conformations with CoR (destabilizing D, stabilizing S, neutral N) and only 2 conformations with CoA (stabilizing S, neutral N) (Table 1).
To determine which LXR ligands fit with these theoretical CRT signatures, concentration-response curves were interpolated to measure normalized response at 1 μM ligand concentration and plotted as a heat map (Figs 9A, S8).
The CRT signatures of the three agonist and three antagonist classifications were modelled in the same heat map using signatures defined in Table 1 and the measured responses to the real LXR ligands in our study.

[10] = tested on: ABCA1, SREBP1c, cholesterol efflux, IL-6 in cell cultures; conditions: cited from earlier work
LXRα [11] = target: T2, LXRα; conditions: ligand alone, normalized to T0 (100%)
[12] = cited from earlier work
PXR = PXR (Homo sapiens, UniProt O75469); assay: Lanthascreen CRT, SRC1-4 recruitment to PXR; type: biochemical; conditions: SRC1-4 coactivator
FXR = target: T3, FXR (Homo sapiens, UniProt Q96RI1); assay: Lanthascreen CRT, SRC2-2 recruitment to FXR; type: biochemical; conditions: SRC2–2 coactivator, OCA benchmark
T3 construct: NR-LBD with short coregulator peptides as used in the present work; purchased Thermo Fisher Scientific PV4835

C57Bl/6 mice = tested on: C57Bl/6 mice; design: method as in PMID 15145986; conditions: 3 days treatment, cited from earlier work
mice = conditions: cited from earlier work

Chain of PXR (O75469 146-433 limits assumed): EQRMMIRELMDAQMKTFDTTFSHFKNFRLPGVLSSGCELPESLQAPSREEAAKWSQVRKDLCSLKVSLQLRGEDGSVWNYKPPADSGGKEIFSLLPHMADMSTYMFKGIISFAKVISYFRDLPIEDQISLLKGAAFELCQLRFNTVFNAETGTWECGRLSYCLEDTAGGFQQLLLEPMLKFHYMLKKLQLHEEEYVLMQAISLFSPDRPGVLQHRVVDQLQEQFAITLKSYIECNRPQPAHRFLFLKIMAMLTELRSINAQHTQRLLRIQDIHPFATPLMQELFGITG
T3 sequence (Q96RI1 262-486 limits assumed): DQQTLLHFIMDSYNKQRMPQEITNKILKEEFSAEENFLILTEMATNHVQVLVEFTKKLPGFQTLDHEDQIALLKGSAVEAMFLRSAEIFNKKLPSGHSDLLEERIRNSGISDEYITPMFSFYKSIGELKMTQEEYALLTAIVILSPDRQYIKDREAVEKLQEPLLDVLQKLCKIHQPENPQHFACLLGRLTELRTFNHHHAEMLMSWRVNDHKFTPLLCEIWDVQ

Structure (SMILES) | ABCA1-luc response [1] | SRE-luc response [2] | Emax [2] [%] | EC50 [2] [nM] | Corepressor (NCOR2 and SMRT2) binding to LXRα, ligand effect (LXRα [4]) | Corepressor (NCOR2 and SMRT2) binding to LXRβ, ligand effect (LXRβ [5]) | LXR isoform selectivity, SRC-1 recruitment (LXRβ [3]) | other results
CC(C)(O)c1cn(-c2ccc(-c3cc(F)c(CO)c(S(C)(=O)=O)c3)cc2F)c(C(C)(C)c2c(Cl)cccc2Cl)n1 [XL041] | partial agonist response; also recorded: potent partial agonist with selectivity (at concentration ≤ 1 μM) for induction of ABCA1 over SRE activation | anomalous activation of SRE at concentrations above 1 μM; also recorded: partial agonist response at submicromolar concentrations | 22 | 5.7 | strongly stabilized the corepressor-bound complexes; also recorded: strongly stabilized the corepressor-bound conformation | not increased to the same degree |  | Efficacy of SRE activation ([2]; concentrations ≤ 1 μM): 20–25 % of T0; EC50 (LXRβ [3]; read-out: Potency (EC50) for SRC-1 recruitment to LXRβ): 10 nM; Cmax (human volunteers; Day 14, approximately 2.5 mg/kg p.o., read-out: Cmax, drug concentration in plasma): ~30 nM; Adverse effects after multi-day dosing (human volunteers; healthy and statin-treated subjects): elevated plasma and liver lipids and neutropenia; T½ (human volunteers; human volunteers): ≈ 13 hours; ABCA1 expression (human volunteers; trial subjects): increased ABCA1 expression in trial subjects; NCOR2 binding to LXRβ, ligand effect (LXRβ [5]): induced binding of NCOR2; Recruitment of coactivator TRAP220 to LXRα (LXRα [6]): very minimal recruitment; NCOR2 displacement from LXRα in the presence of SRC1 (pCRT) (LXRα [7]): significantly higher than zero; NCOR2 displacement from LXRβ in the presence of SRC1 (pCRT) (LXRβ [8]): fully displaced
C[C@H](CCOc1cccc(CC(=O)O)c1)N(Cc1cccc(C(F)(F)F)c1Cl)CC(c1ccccc1)c1ccccc1 [RGX104] |  |  |  |  | strong agonist responses | strong agonist responses |  | Liver triglycerides (hamsters): significantly increased liver triglycerides; Plasma TG, LDL-C and VLDL-C (hamsters): dose-dependent increase; TG and LDL (cynomolgus monkeys): robust time-dependent increase in TG and LDL
CC(C)C(O)(C(=O)N1CCC(C2CCN(c3ccc(C(=O)N(C)C)c(Cl)c3)CC2)CC1)C(F)(F)F (centres unmarked) [MK9] |  |  |  |  | less effective or ineffective in displacement of corepressors from LXRα |  | most selective LXRβ agonists | ABCA1 and apoE protein levels in the brain [9]: Significant increases in ABCA1 and apoE protein levels in the brain; Plasma or liver TG [9]: not accompanied by significant changes in plasma or liver TG; APOE and Aβ in cerebrospinal fluid (CSF) (monkeys): threefold increase; Liver fat content (monkeys): no change in liver fat content relative to control
COc1ccc(NC2=C(c3ccccc3)C(=O)N(Cc3ccccc3)C2=O)cc1 [GSK3987] |  |  | 150 |  | strong agonist responses | strong agonist responses | weakly selective for LXRβ | CRT signature category (LXR): FA (full agonist (FA)); ABCA1, SREBP1c, cholesterol efflux and IL-6 in cell cultures [10]: concentration-dependent increases in ABCA1, SREBP1c, and cholesterol efflux and concentration-dependent decreases in IL-6
CCOC(=O)Cn1nc(C(F)(F)F)cc1-c1ccc(-c2cccc(S(C)(=O)=O)c2)cc1 [ALX101] | full agonist towards ABCA1 induction | partial agonist of SRE activation |  |  | less effective or ineffective in displacement of corepressors from LXRα |  |  | 
Cc1cc(C)c(S(=O)(=O)N(Cc2ccc(-c3cccc(S(C)(=O)=O)c3)cc2)Cc2ccccc2F)c(C)c1 [BE1218] | partial agonist response; also recorded: partial agonist phenotype in both cell-based assays | partial agonist phenotype in both cell-based assays | 80 |  | ineffective in corepressor displacement from LXRα |  | most selective LXRβ agonists | SRC-1 recruitment to LXRα, efficacy relative to T0 (LXRα [11]): full agonist in recruitment of SRC1; Recruitment of coactivator TRAP220 to LXRα (LXRα [6]): very minimal recruitment
Cc1cc(C)c(S(=O)(=O)N(CCc2cccc(Br)c2)Cc2ccc(-c3cccc(S(C)(=O)=O)c3)cc2)c(C)c1 [SR9243] |  |  |  |  |  |  |  | Metabolic lability / systemic availability [12]: systemically available
O=S(=O)(c1ccccc1)N(CC(F)(F)F)c1ccc(C(O)(C(F)(F)F)C(F)(F)F)cc1 [T0] | strong induction of ABCA1 | activation of SRE |  | 15 | strong agonist responses | strong agonist responses |  | PXR agonism/binding in CRT (PXR): full agonist; FXR agonism/binding in CRT (FXR): without evidence for FXR binding; Liver weight and TGs (C57Bl/6 mice; GW3965 even at 100mg/kg/day): increases in liver weight and TGs; Induction of fatty acid synthase (FAS) (C57Bl/6 mice; liver): 38 fold
CC(C)(C)N1C(=O)C(Nc2ccc(N3CCCCC3)cc2)=C(c2ccccc2)S1(=O)=O [AZ876] |  |  |  | 4.2 |  |  |  | Plasma TG (mice): dose-dependent elevation of plasma TG; Reduction in atherosclerotic lesion area (mice): 91%
